# Source: patent US20060293264A1, “STAT3 decoy oligonucleotides and uses therefor” (priority 2004, published 2006)
# Key:
# [1] = test system: Bcl-xL; assay: Bcl-xL expression by immunoblotting in SCCHN cells in vitro; format: cell-based, human; settings: 1483 cells; 25 μM, 6 days; p<0.0001
# Description: Immunoblotting. Whole cell extracts were mixed with 2× sodium dodecyl sulfate (SDS) sample buffer (125 mmol/L Tris-HCL, pH 6.8; 4% SDS; 20% glycerol; 10% 2 mercaptoethanol) at 1:1 ratio and were heated for 5 min at 100° C. Proteins (50 μg/lane) were separated by 12.5% SDS-PAGE and transferred onto a nitrocellulose membrane (MSI; Westboro, Mass). Prestained molecular weight markers (GIBCO BRL; Gaithersburg, MD) were included in each gel. Membranes were blocked for 30 min in Tris-buffered saline (TBS: 10 mmol/L Tris-HCL, pH 7.5 and 150 mmol/L NaCl) with 0.5% Tween-20 (TBST) and 5% BSA. […] Quantification of Cyclin D1 and Bcl-xL was performed by using a Molecular Dynamics Personal Densitometer SI and IMAGEQUANT software (Image Products International, Chantilly, Va.). Immunoblotting bands were quantified by densitometry and the Molecular Analyst software (AlphaDigidoc 1000, Alpho-Innotech) with normalization of each band to their corresponding loading control (Xi, S., et al. J Biol Chem, 278: 31574-31583, 2003). […]
# As shown above, treatment with the STAT3 decoy abrogates STAT3 target gene expression in vivo. […] The data were analyzed using parametric analysis of variance of a two-way factorial design. […]
# [2] = molecular target: T1, STAT3 (Homo sapiens, UniProt P40763); assay: STAT3 activation by EMSA in harvested xenografts; format: in vivo; settings: xenografts harvested 4 hrs after last treatment; p=0.02
# T1 construct: Whole cell extracts were prepared and EMSAs performed on 4% native polyacrylamide gels; endogenous in cells; host or cells: whole cell extracts
# T1 sequence (P40763 2-770 limits assumed): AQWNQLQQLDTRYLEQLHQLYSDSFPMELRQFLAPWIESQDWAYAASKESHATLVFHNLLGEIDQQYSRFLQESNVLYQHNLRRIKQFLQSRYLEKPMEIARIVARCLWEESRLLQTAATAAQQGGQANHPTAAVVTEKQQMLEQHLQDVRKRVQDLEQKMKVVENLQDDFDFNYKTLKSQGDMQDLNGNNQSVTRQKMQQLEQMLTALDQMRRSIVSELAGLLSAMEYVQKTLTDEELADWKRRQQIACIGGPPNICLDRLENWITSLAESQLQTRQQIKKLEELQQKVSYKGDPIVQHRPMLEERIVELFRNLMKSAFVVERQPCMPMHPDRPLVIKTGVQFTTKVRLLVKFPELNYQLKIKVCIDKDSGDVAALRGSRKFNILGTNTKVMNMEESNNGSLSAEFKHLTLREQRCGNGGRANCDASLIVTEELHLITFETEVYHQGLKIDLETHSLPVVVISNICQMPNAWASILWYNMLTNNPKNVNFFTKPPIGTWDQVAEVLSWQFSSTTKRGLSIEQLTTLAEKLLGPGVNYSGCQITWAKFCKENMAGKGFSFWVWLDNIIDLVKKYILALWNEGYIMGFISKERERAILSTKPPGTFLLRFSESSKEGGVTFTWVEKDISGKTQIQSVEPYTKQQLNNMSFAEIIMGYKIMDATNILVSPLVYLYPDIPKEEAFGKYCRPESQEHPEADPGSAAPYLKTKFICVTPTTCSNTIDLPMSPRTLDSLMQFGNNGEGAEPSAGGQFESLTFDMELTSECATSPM
# Description: Electrophoretic Mobility Shift Assay (EMSA). Whole cell extracts were prepared and EMSAs performed on 4% native polyacrylamide gels as described (Xi, S., et al. J Biol Chem, 278: 31574-31583, 2003 and Wong, P., etal. Mol Cell Biol, 14. 914-922, 1994). STAT3 activation was evaluated by using binding reactions with 20 μg of extracted protein, and radiolabeled high-affinity serum inducible element (hSIE) duplex oligonucleotide (Wagner et al., EMBO J. 9(13):4477-4484 (1990)). Quantification of the STAT3 signal was performed by scanning the SIF-A band using a Molecular Dynamics Personal Densitometer SI and IMAGEQUANT software. […] For supershift experiments, extracts were preincubated with STAT3 polyclonal antibody (C-20, Santa Cruz Biotechnology). Gel shift bands were quantified by densitometry and the Molecular Analyst software (AlphaDigidoc 1000, Alpha-Innotech) with normalization of each band to the positive control lysate run on that gel as described previously for STAT3 activation determinations (Grandis, J. R. et al. Proc Natl Acad Sci USA, 97: 4227-4232., 2000).
# In vivo tumor xenograft studies. Female athymic nude mice nu/nu (4-6 weeks old; 20±2 g; Harlan-Sprague-Dawley) were implanted with 1×10^6 1483 cells into the right and left flank with a 26-gauge needle/1 ml tuberculin syringe, resulting in two tumors per mouse. […]
# [3] = test system: GAS-responsive element; assay: pGAS-Luc reporter gene assay in UM-22B SCCHN cells; format: cell-based; settings: UM-22B pGAS-Luc, 2 μg transfected, 24 hrs, IFN-γ stimulation
# Description: FIG. 9 depicts the inhibition of reporter gene expression from GAS-responsive element in SCCHN cells. An SCCHN cell line, UM-22B, was used to generate a stable cell line expressing a pGAS-Luc reporter gene (pGAS-Luc plasmid carrying 4 repeats of GAS sequence: [NT] ID NO: 31), was obtained from Stratagene, Catalog number: 219091-51). The cells were transfected with 2 μg of the STAT3 decoy or the control mutant decoy. At 24 hrs after transfection, luciferase activity was measured and normalized to the total amount of protein.
# [4] = test system: head and neck squamous cell carcinoma; settings: dose-dependent; Leong et al. 2003; cited from earlier work
substance,measurement,setting,value
"STAT3 decoy (sense CATTTCCCGTAAATC; antisense GATTTACGGGAAATG; phosphorothioate modified, further chemistry not given here; listed as Homo sapiens)",Bcl-xL expression compared with mutant control decoy,[1],decreased
same,STAT3 activation levels compared with mutant control decoy,[2],decreased
same,reporter gene expression from a GAS-responsive element (STAT1 reporter activity),[3],inhibit
same,head and neck squamous cell carcinoma growth in vitro,[4],abrogate
